Assay results from patent publication US9499493B2, “2,4-pyrimidinediamine compounds and their uses” (Rigel Pharmaceuticals, Inc., priority 2002, dated 2016).
pIC50: −log10 of the molar value.

Columns and labels:
[1] = tested on: cultured human mast cells (CHMC); test: CHMC low cell density ionomycin activation: tryptase assay; format: cell-based
[2] = tested on: cultured human mast cells (CHMC); test: CHMC low cell density IgE activation: tryptase assay; format: cell-based; conditions: anti-IgE
Method in brief: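 CHMC resuspended in pre-warmed MT buffer at 1000-1500 cells/well (donor-dependent) and preincubated 1 hr at 37° C, then stimulated with anti-IgE for 30 min at 37° C; unstimulated wells got MT alone. Supernatant tryptase activity read with tryptase substrate after 30 min at room temperature.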

| pIC50 [1] | pIC50 [2] | pIC50 ([1]; Homo sapiens, Mast cell) | pIC50 ([2]; Homo sapiens, Mast cell) | SMILES |
| --- | --- | --- | --- | --- |
| < 5.00 | 6.04 | – | – | CCOC(=O)CCn1ncc2cc(Nc3ncc(F)c(Nc4cccc(OC(F)(F)F)c4)n3)ccc21 [R935360, N2-[1-(2-Ethoxycarbonylethyl)indazoline-5-yl]-5-fluoro-N4-(3-trifluoromethoxyphenyl)-2,4-pyrimidinediamine] |
| < 5.00 | 5.91 | – | – | Cc1cnc(Nc2ccc(OCc3nnn(C)n3)cc2)nc1Nc1cccc(O)c1 [R920893, N4-(3-Hydroxyphenyl)-5-methyl-N2-[4-(2-methyl-1,2,3,4-tetrazol-5-yl)methyleneoxyphenyl]-2,4-pyrimidineamine] |
| < 5.00 | 6.41 | – | – | CNC(=O)CCn1ncc2ccc(Nc3ncc(F)c(Nc4cccc(O)c4)n3)cc21 [R935294, 5-Fluoro-N4-(3-hydroxyphenyl)-N2-[1-[2-(N-methylaminocarbonyl)ethyl]-indazoline-6-yl]-2,4-pyrimidinediamine] |
| 5.17 | 5.98 | – | – | Cc1nc(COc2cccc(Nc3nc(Nc4ccc(OC(C)C)cc4)ncc3F)c2)no1 [R945138, 5-Fluoro-N2-(4-isopropoxyphenyl)-N4-[3-(5-methyl-1,2,4-oxadiazol-3-yl)methyleneoxyphenyl]-2,4-pyrimidinediamine] |
| 5.52 | 6.11 | – | – | CCOC(=O)COc1cccc(Nc2ncc(F)c(Nc3ccc(-n4cnc(Cl)c4Cl)cc3)n2)c1 [R926809, N4-[4-(4,5-Dichloro-1H-imidazol-1-yl)phenyl]-5-fluoro-N2-(3-ethoxycarbonylmethyleneoxyphenyl)-2,4-pyrimidinediamine] |
| 5.35 | 5.85 | – | – | COC(=O)COc1cccc(Nc2ncc(F)c(Nc3cccc(OCC(=O)OC)c3)n2)c1 [R926255, N2,N4-Bis[(3-methoxycarbonylmethyleneoxy)phenyl]-5-fluoro-2,4-pyrimidinediamine] |
| < 5.00 | 5.66 | – | – | CCOc1ccc(Nc2nc(Nc3ccc4c(c3)OCCO4)ncc2F)cc1 [R920670, N4-(4-ethyloxyphenyl)-N2-(3,4-ethylenedioxyphenyl)-5-fluoro-2,4-pyrimidinediamine] |
| < 5.00 | < 5.00 | – | – | CC(C)(C)c1ccc(Nc2nc(Nc3cccc(OCC(=O)O)c3)ncc2F)cc1 [R926726, N4-(4-tert-Butylphenyl)-N2-(3-carboxymethyleneoxyphenyl)-5-fluor-2,4-pyrimidinediamine] |
| 5.05 | 6.15 | – | – | Cc1nc(COc2cccc(Nc3ncc(F)c(Nc4cccc(O)c4)n3)c2)no1 [R945127, 5-Fluoro-N4-(3-hydroxyphenyl)-N2-[3-(5-methyl-1,2,4-oxadiazol-3-yl)methyleneoxyphenyl]-2,4-pyrimidinediamine] |
| – | – | < 5.00 | < 5.00 | Oc1cccc(Nc2nc(Nc3ccc(OCc4nnn[nH]4)cc3)ncc2C(F)(F)F)c1 [R920846] |
| < 5.00 | 5.77 | – | – | Nc1cccc(Nc2ncc(F)c(Nc3cccc(NCCOCc4ccccc4)c3)n2)c1 [R950175, N2-(3-Aminophenyl)-N4-[3-(N-benzyloxyethyleneamino)phenyl]-5-fluoro-2,4-pyrimidinediamine] |
| < 5.00 | 6.41 | – | – | CNC(=O)COc1cccc(Nc2ncc(F)c(Nc3cccc(B(O)O)c3)n2)c1 [R926754, 5-Fluoro-N4-(3-dihydroxyborylphenyl)-N2-[3-[(N-methylamino)carbonylmethyleneoxy]phenyl]-2,4-pyrimidinediamine] |
| 5.12 | 7.00 | – | – | CNC(=O)COc1cccc(Nc2ncc(F)c(Nc3ccc4c(c3)NC(=O)CO4)n2)c1 [R908701] |
| < 5.00 | 6.45 | – | – | Fc1cnc(Nc2ccc3cn[nH]c3c2)nc1Nc1ccc2c(c1)OC(F)(F)O2 [R935374, N4-(3,4-Difluoromethylendioxyphenyl)-5-fluoro-N2-(indazoline-6-yl)-2,4-pyrimidinediamine] |
| 5.00 | 6.21 | – | – | CNC(=O)c1cc(COc2cccc(Nc3ncc(F)c(Nc4ccc5c(c4)OCCO5)n3)c2)co1 [R935213, N4-(3,4-ethylenedioxyphenyl)-5-fluoro-N2-[3-(2-(N-methylamino)carbonyl-fur-4-yl)methyleneoxyphenyl]-2,4-pyrimidinediamine] |
| < 5.00 | 6.25 | – | – | Fc1cnc(Nc2ccc3[nH]ncc3c2)nc1Nc1cccc(OC(F)(F)F)c1 [R935364, 5-Fluoro-N2-(indazoline-5-yl)-N4-(3-trifluoromethoxyphenyl)-2,4-pyrimidinediamine] |
| < 5.00 | < 5.00 | – | – | CN(C)CCCNC(=O)CNc1cccc(Nc2ncc(F)c(Nc3cccc(NCCO)c3)n2)c1 [R950237, N2-[3-(3-N,N-Dimethylaminopropyl)aminocarbonylmethyleneaminophenyl]-5-fluoro-N4-[3-(2-hydroxyethylamino)phenyl]-2,4-pyrimidinediamine] |
| < 5.00 | 6.39 | – | – | CCOC(=O)CNc1cccc(Nc2ncc(F)c(Nc3cccc(O)c3)n2)c1 [R950215, N2-(Ethoxycarbonylmethyleneaminophenyl)-5-fluoro-N4-(3-hydroxyphenyl)-2,4-pyrimidinediamine] |

Further lines, the compound ahead of its results:

| SMILES | pIC50 [1] | pIC50 [2] | pIC50 ([1]; Homo sapiens, Mast cell) | pIC50 ([2]; Homo sapiens, Mast cell) |
| --- | --- | --- | --- | --- |
| CCOC(=O)C(C)(Oc1cccc(Nc2nc(Nc3ccc(OC(C)C)cc3)ncc2F)c1)C(=O)OCC [R935187, N4-[3-(1-Bis(ethoxycarbonyl)ethoxy)phenyl]-5-fluoro-N2-[4-isopropoxyphenyl)-2,4-pyrimidinediamine] | < 5.00 | 5.04 | – | – |
| CCOC(=O)c1cnc(Nc2ccc(OCC(=O)O)cc2)nc1Nc1ccc(OCC(=O)OC)cc1 [R926584, N2-(4-Carboxymethyleneoxyphenyl)-5-ethoxycarbonyl-N4-(4-methoxycarbonylmethyleneoxyphenyl)-2,4-pyrimidinediamine] | < 5.00 | < 5.00 | – | – |
| CNC(=O)Cn1ncc2ccc(Nc3ncc(F)c(Nc4ccc5cnn(CC(=O)NC)c5c4)n3)cc21 [R935206, N2,N4-Bis[1-(N-methylaminocarbonyl)methyl-indazoline-6-yl]-5-fluoro-2,4-pyrimidinediamine] | < 5.00 | 5.33 | – | – |
| Cn1nnc(COc2ccc(Nc3nc(Nc4ccc(OCc5nnnn5C)cc4)ncc3F)cc2)n1 [R945047, 5-Fluoro-N2,N4-[4-(1-methyl-1,2,3,4-tetrazol-5-yl)methyleneoxyphenyl], [4-(2-methyl-1,2,3,4-tetrazol-5-yl)methyleneoxyphenyl]-2,4-pyrimidinediamine] | < 5.00 | 6.07 | – | – |
| Fc1cnc(Cl)nc1Nc1ccc2c(c1)CN(c1nc(Cl)ncc1F)CC2 [Compound R926910] | < 5.00 | < 5.00 | – | – |
| CC(C)(C)OC(=O)COc1ccc(Nc2nc(Cl)c(Cl)c(Nc3ccc(OCC(=O)OC(C)(C)C)cc3)n2)cc1 [R926576, N2,N4-Bis(4-tert-butoxyoxycarbonylmethyleneoxyphenyl)-5,6-dichloro-2,4-pyrimidinediamine] | < 5.00 | < 5.00 | – | – |
| CON=C(N)COc1ccc(Nc2nc(Nc3ccc4c(c3)OCCO4)ncc2F)cc1 [R945175, N2-(3,4-Ethylenedioxyphenyl)-5-fluoro-N4-[4-methoxyimino(amino)ethyleneoxyphenyl]-2,4-pyrimidinediamine] | < 5.00 | 5.78 | – | – |
| CNC(=O)COc1ccc(Nc2ncc(F)c(Nc3ccc4c(c3)OCCCO4)n2)cc1 [R935184, 5-Fluoro-N2-[4-(N-methylamino)carbonylmethyleneoxyphenyl]-N4-(3,4-propylenedioxyphenyl)-2,4-pyrimidinediamine] | < 5.00 | 6.22 | – | – |
| NC(=O)Cn1c(=O)oc2ccc(Nc3ncc(F)c(Nc4ccc5c(c4)OCCO5)n3)cc21 [R926847, N2-[5-(N-Aminocarbonylmethylene-2-oxo-1,3-oxazol-3(2H)-yl)phenyl]-N4-(3,4-ethylenedioxyphenyl)-5-fluoro-2,4-pyrimidinediamine] | 5.20 | 5.83 | – | – |
| OCCCn1ncc2ccc(Nc3ncc(F)c(Nc4ccc5c(c4)OCCO5)n3)cc21 [R935287, N4-(3,4-Ethylenedioxyphenyl)-5-fluoro-N2-[1-(3-hydroxypropyl)indazoline-6-yl]-2,4-pyrimidinediamine] | < 5.00 | 6.39 | – | – |
| O=C(CNc1cccc(Nc2ncc(F)c(Nc3cccc(NCCO)c3)n2)c1)N1CCNCC1 [R950241, N4-[3-(2-Hydroxyethyleamino)phenyl]-N2-[3-(N-piperazino)-carbonylmethyleneaminophenyl]-5-fluoro-2,4-pyrimidinediamine] | < 5.00 | 5.48 | – | – |
| CNC(=O)COc1cc(Nc2ncc(F)c(Nc3ccc(C)c(OCC(=O)NC)c3)n2)ccc1C [R926760, 5-Fluoro-N2,N4-bis[4-methyl-3-[(N-methylamino)carbonylmethyleneoxy]phenyl]-2,4-pyrimidinediamine] | < 5.00 | 5.54 | – | – |
| Fc1cnc(Nc2ccc(OCCN3CCOCC3)cc2)nc1Nc1ccc2c(c1)OCCO2 [R926709, N4-(3,4-Ethylenedioxyphenyl)-5-fluoro-N2-[4-[2-(N-morpholino)ethyleneoxy]phenyl]-2,4-pyrimidinediamine] | < 5.00 | 6.07 | – | – |
| CCOC(=O)c1cnc(Nc2ccc3c(c2)NC(=O)CO3)nc1Nc1ccc2c(c1)NC(=O)CO2 [R926325, N2,N4-Bis[6-(1,4-benzoxazine-3-onyl)]-5-ethoxycarbonyl-2,4-pyrimidinediamine] | < 5.00 | < 5.00 | – | – |
| CCOC(=O)C(C)(C)c1ccc(Nc2nc(Nc3ccc(OC(C)C)cc3)ncc2F)cc1 [R935167, N4-[4-[(1-Ethoxycarbonyl-1-methyl)ethyl]phenyl]-5-fluoro-N2-(4-isopropoxyphenyl)-2,4-pyrimidinediamine] | < 5.00 | 5.67 | – | – |
| N#Cc1cnc(Nc2ccc(OCC(=O)NCC3CC3)cc2)nc1Nc1ccc(OCC(=O)NCC2CC2)cc1 [R925859, N2,N4-Bis[4-(N-cyclopropylmethylamino)carbonylmethyleneoxyphenyl]-5-cyano-2,4-pyrimidinediamine] | < 5.00 | < 5.00 | – | – |
